In ChEMBL document CHEMBL1157212, “Classification of estrogen receptor-beta ligands on the basis of their binding affinities using support vector machine and linear discriminant analysis” (Eur J Med Chem, 2008) one finds IC50 data, which are given here for 3 molecules.

The IC50 is the concentration needed to halve the response being measured. A higher IC50 goes with a need for much substance.

Estrogen receptor beta, sequence (Q92731 whole entry): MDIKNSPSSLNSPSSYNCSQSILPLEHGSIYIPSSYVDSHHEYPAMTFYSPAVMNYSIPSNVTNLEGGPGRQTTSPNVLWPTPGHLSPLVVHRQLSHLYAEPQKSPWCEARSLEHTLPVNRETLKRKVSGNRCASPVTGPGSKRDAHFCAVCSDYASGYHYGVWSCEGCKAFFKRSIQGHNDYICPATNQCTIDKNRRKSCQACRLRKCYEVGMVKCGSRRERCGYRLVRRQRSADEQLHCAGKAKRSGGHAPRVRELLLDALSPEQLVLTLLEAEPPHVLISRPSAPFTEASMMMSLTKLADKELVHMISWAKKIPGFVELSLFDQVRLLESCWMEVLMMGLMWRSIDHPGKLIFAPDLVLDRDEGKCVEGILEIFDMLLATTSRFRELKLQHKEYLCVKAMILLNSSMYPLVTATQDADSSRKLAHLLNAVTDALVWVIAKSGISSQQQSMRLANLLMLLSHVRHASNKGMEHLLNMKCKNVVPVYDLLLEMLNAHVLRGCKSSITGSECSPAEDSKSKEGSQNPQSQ

The assay addresses Estrogen receptor beta (Homo sapiens, UniProt Q92731).
Description: Binding affinity to ERbeta
Consider `O=C(O)c1cc(O)cc2nc(-c3ccc(O)cc3)oc12`, for which half-maximal inhibition (IC50) was put at 5000 nM.
The result for `C/C=C/c1cc(O)cc2nc(-c3ccc(O)cc3)oc12` reads 142 nM.
Regarding `Oc1ccc(-c2nc3cc(O)cc(Br)c3o2)c(C(F)(F)F)c1`, inhibition was half-maximal at 1.4 nM (IC50).
